PubChem BioAssay AID2060507 (Molecular Pharmacology Branch, DTP, NCI, 2025)

System: 519858-162-T-J1-PDC complex spheroid viability
Test: Anticancer human tumor 519858-162-T-J1-PDC patient-derived colon adenocarcinoma cell line growth inhibition [GQUAD]
Conditions: for IC50: curve of first compound; for viability, T/C: stronger effect = lower value; active = viability on the fitted dose curve at most 10% of control; inactive = the rest
Method in brief: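 Multi-cell-type spheroids of tumor cells with HUVEC and mesenchymal stem cells, treated with drug combinations. Concentrations descend in half-log steps from near clinical Cmax, or from 10 microM where Cmax is unknown; viability read-out.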

[1] = second compound 0.0316 µM, first compound 0.0316 µM
[2] = second compound 0.0316 µM, first compound 0.1 µM
[3] = second compound 0.0316 µM, first compound 0.316 µM
[4] = second compound 0.0316 µM, first compound 1 µM
[5] = second compound 0.0316 µM, first compound 3.16 µM
[6] = second compound 0.0316 µM, first compound 10 µM
[7] = second compound 0.1 µM, first compound 0.0316 µM
[8] = second compound 0.1 µM, first compound 0.1 µM
[9] = second compound 0.1 µM, first compound 0.316 µM
[10] = second compound 0.1 µM, first compound 1 µM
[11] = second compound 0.1 µM, first compound 3.16 µM
[12] = second compound 0.1 µM, first compound 10 µM
[13] = second compound 0.316 µM, first compound 0.0316 µM
[14] = second compound 0.316 µM, first compound 0.1 µM
[15] = second compound 0.316 µM, first compound 0.316 µM
[16] = second compound 0.316 µM, first compound 1 µM
[17] = second compound 0.316 µM, first compound 3.16 µM
[18] = second compound 0.316 µM, first compound 10 µM
[19] = second compound 1 µM, first compound 0.0316 µM
[20] = second compound 1 µM, first compound 0.1 µM
[21] = second compound 1 µM, first compound 0.316 µM
[22] = second compound 1 µM, first compound 1 µM
[23] = second compound 1 µM, first compound 3.16 µM
[24] = second compound 1 µM, first compound 10 µM
[25] = second compound 3.16 µM, first compound 0.0316 µM
[26] = second compound 3.16 µM, first compound 0.1 µM
[27] = second compound 3.16 µM, first compound 0.316 µM
[28] = second compound 3.16 µM, first compound 1 µM
[29] = second compound 3.16 µM, first compound 3.16 µM
[30] = second compound 3.16 µM, first compound 10 µM
[31] = second compound 10 µM, first compound 0.0316 µM
[32] = second compound 10 µM, first compound 0.1 µM
[33] = second compound 10 µM, first compound 0.316 µM
[34] = second compound 10 µM, first compound 1 µM
[35] = second compound 10 µM, first compound 3.16 µM
[36] = second compound 10 µM, first compound 10 µM
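Note: spheroids exposed to compounds for 7 days.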
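Throughout, for viability, T/C: 100% = DMSO vehicle control viability.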

C=CC(=O)N1CCN(c2nc(=O)n(-c3c(C)ccnc3C(C)C)c3nc(-c4c(O)cccc4F)c(F)cc23)C(C)C1 (stereo unspecified) + CN(C)c1ccc(Nc2c3ccc(NC(=O)CCN4CCCC4)cc3nc3cc(NC(=O)CCN4CCCC4)ccc23)cc1
inactive: viability, T/C [1] 91.5% | viability, T/C [2] 84.4% | viability, T/C [3] 61.4% | viability, T/C [4] 69.3% | viability, T/C [5] 94% | viability, T/C [6] 110% | viability, T/C [7] 81.7% | viability, T/C [8] 72.3% | viability, T/C [9] 80.3% | viability, T/C [10] 61.8% | viability, T/C [11] 84.1% | viability, T/C [12] 95.8% | viability, T/C [13] 88.3% | viability, T/C [14] 80.8% | viability, T/C [15] 120% | viability, T/C [16] 68.8% | viability, T/C [17] 84% | viability, T/C [18] 60.1% | viability, T/C [19] 78.8% | viability, T/C [20] 74.4% | viability, T/C [21] 56.4% | viability, T/C [22] 69.3% | viability, T/C [23] 78.7% | viability, T/C [24] 80.3% | viability, T/C [25] 62.3% | viability, T/C [26] 63.9% | viability, T/C [27] 68.8% | viability, T/C [28] 62.2% | viability, T/C [29] 47.6% | viability, T/C [30] 94.9% | viability, T/C [31] 48.2% | viability, T/C [32] 40.3% | viability, T/C [33] 56.7% | viability, T/C [34] 61.5% | viability, T/C [35] 49.2% | viability, T/C [36] 66.5%
< 0.0316 µM: IC50 (second compound 10 µM)
> 10 µM: IC50 (second compound 0.0316 µM) | IC50 (second compound 0.1 µM) | IC50 (second compound 0.316 µM) | IC50 (second compound 1 µM) | IC50 (second compound 3.16 µM)

CC1COCCN1c1cc(C2(O)CC3CCC(C2)O3)c2cnn(-c3ccn[nH]3)c2n1 (stereo unspecified) + CN(C)c1ccc(Nc2c3ccc(NC(=O)CCN4CCCC4)cc3nc3cc(NC(=O)CCN4CCCC4)ccc23)cc1
inactive: viability, T/C [1] 84.3% | viability, T/C [2] 89% | viability, T/C [3] 87.3% | viability, T/C [4] 90.2% | viability, T/C [5] 114% | viability, T/C [6] 42% | viability, T/C [7] 77.5% | viability, T/C [8] 76.9% | viability, T/C [9] 76.5% | viability, T/C [10] 73.5% | viability, T/C [11] 75.2% | viability, T/C [12] 71.6% | viability, T/C [13] 106% | viability, T/C [14] 65.5% | viability, T/C [15] 98.2% | viability, T/C [16] 105% | viability, T/C [17] 113% | viability, T/C [18] 57% | viability, T/C [19] 104% | viability, T/C [20] 75.6% | viability, T/C [21] 99.8% | viability, T/C [22] 79.2% | viability, T/C [23] 88.4% | viability, T/C [24] 47.8% | viability, T/C [25] 71.1% | viability, T/C [26] 66.8% | viability, T/C [27] 98.3% | viability, T/C [28] 73.2% | viability, T/C [29] 74.3% | viability, T/C [30] 65.3% | viability, T/C [31] 85% | viability, T/C [32] 81% | viability, T/C [33] 59.9% | viability, T/C [34] 60.7% | viability, T/C [35] 76.5% | viability, T/C [36] 43.1%
9.4 µM: IC50 (second compound 1 µM)
> 10 µM: IC50 (second compound 0.1 µM) | IC50 (second compound 0.316 µM) | IC50 (second compound 3.16 µM) | IC50 (second compound 10 µM)
8.37 µM: IC50 (second compound 0.0316 µM)

C=CC(=O)N1CCN(c2nc(=O)n(-c3c(C)ccnc3C(C)C)c3nc(-c4c(O)cccc4F)c(F)cc23)C(C)C1 (stereo unspecified) + Cc1[nH]c2ccc(F)cc2c1-c1nc2c3cccnc3c3ncccc3c2[nH]1
< 0.0316 µM: IC50 (second compound 10 µM)
inactive: viability, T/C [1] 80.3% | viability, T/C [2] 88.6% | viability, T/C [3] 65.3% | viability, T/C [4] 81.8% | viability, T/C [5] 90.9% | viability, T/C [6] 71.1% | viability, T/C [7] 130% | viability, T/C [8] 96.3% | viability, T/C [9] 104% | viability, T/C [10] 89.7% | viability, T/C [11] 81.4% | viability, T/C [12] 82.2% | viability, T/C [13] 76.3% | viability, T/C [14] 95.4% | viability, T/C [15] 62.8% | viability, T/C [16] 73% | viability, T/C [17] 74.7% | viability, T/C [18] 97.5% | viability, T/C [19] 97.3% | viability, T/C [20] 75.4% | viability, T/C [21] 94.8% | viability, T/C [22] 85.8% | viability, T/C [23] 79.3% | viability, T/C [24] 69.3% | viability, T/C [25] 59.6% | viability, T/C [26] 73.6% | viability, T/C [27] 79.5% | viability, T/C [28] 46.4% | viability, T/C [29] 72.1% | viability, T/C [30] 53.5% | viability, T/C [31] 39.9% | viability, T/C [32] 44% | viability, T/C [33] 65.6% | viability, T/C [34] 62.8% | viability, T/C [35] 52.5% | viability, T/C [36] 80.4%
> 10 µM: IC50 (second compound 0.0316 µM) | IC50 (second compound 0.1 µM) | IC50 (second compound 0.316 µM) | IC50 (second compound 1 µM) | IC50 (second compound 3.16 µM)
